From ChEMBL document CHEMBL1201862, “PubChem BioAssay data set” (2004)
The source made the active and inactive calls.

Assays:
Phospholipase A2 = Phospholipase A2 (Homo sapiens, UniProt P04054); format: functional;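 further: confirmatory dose-response counterscreen on phospholipase A2, testing hits that came from an ultra-high-throughput screen for ATG4B inhibitors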
[1] = C. albicans growth with fluconazole, confirmation, fluorescence, retest (AID 2467); format: functional, cell-based
Cysteine protease ATG4B = Cysteine protease ATG4B (Homo sapiens, UniProt Q9Y4P1); format: functional;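 further: Fluorescence-based dose-response confirmation assay measuring inhibition of ATG4B activity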
[2] = NIH-3T3 fibroblast cytotoxicity, dose response, cytotoxicity control, cell-based, fluorescence, Alamar Blue, secondary assay (AID 2327); format: functional;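 further: NIH-3T3 mouse fibroblasts cultured with fluconazole at 8 µg/mL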
[3] = target: Peroxisome proliferator-activated receptor gamma/Nuclear receptor coactivator 2 (Homo sapiens, UniProt P37231); assay: (§1) TR-FRET dose response biochemical High Throughput Screening assay for agonists of the steroid receptor coactivator 2 (SRC-2) recruitment by the peroxisome proliferator-activated receptor gamma (PPAR gamma): non-selective agonists. [Related pubchem assays: 1297, 1032 ]; format: functional
[4] = target: Peroxisome proliferator-activated receptor gamma/Nuclear receptor coactivator 3 (Homo sapiens, UniProt P37231); assay: as §1, with “3 (SRC-3)” for “2 (SRC-2)”, “1301 (Confirmation screen.), 1048 (Primary screen.)]” for “1297, 1032 ]”; format: functional
[5] = target: Peroxisome proliferator-activated receptor gamma/Nuclear receptor coactivator 1 (Homo sapiens, UniProt P37231); assay: as §1, with “1 (SRC-1)” for “2 (SRC-2)”, “assays (depositor defined):AID1300, AID1808, AID504735, AID631]” for “assays: 1297, 1032 ]”; format: protein assay
[6] = target: Glucose-6-phosphate 1-dehydrogenase (Homo sapiens, UniProt P11413); assay: human G6PD enzyme inhibitors, dose response, selectivity assay for P. falciparum G6PD inhibitor project, biochemical, fluorescence (AID 504792); format: functional
[7] = target: DNA dC->dU-editing enzyme APOBEC-3G (Homo sapiens, UniProt Q9HC16); assay: Dose Response confirmation of small molecule APOBEC3G DNA Deaminase Inhibitors via a fluorescence-based single-stranded DNA deaminase assay. [Related pubchem assays (depositor defined):AID493012, AID493028]; format: functional
[8] = target: DNA dC->dU-editing enzyme APOBEC-3A (Homo sapiens, UniProt P31941); assay: APOBEC3A DNA deaminase inhibitors, dose response, biochemical (AID 504722); format: functional
[9] = target: C-C chemokine receptor type 6 (Homo sapiens, UniProt P51684); assay: CCR6 receptor antagonists, dose response, cell-based, luminescent beta-arrestin readout (AID 504728); format: functional
[10] = Counterscreen for IDE inhibitors: Luminescence-based cell-based high throughput dose response assay to identify compounds that are cytotoxic to HEK cells. [Related pubchem assays: 434962 (Primary screen (IDE inhibitors in singlicate)), 449730 (Counterscreen (Cytotoxicity in triplicate)), 435028 (Confirmation (IDE inhibitors in triplicate)) …; format: functional; settings: HEK293
[11] = cytotoxicity in HPDE-C7 cells, cell-based, fluorescence, HTS (AID 430); format: functional; settings: Homo sapiens
Insulin-degrading enzyme = target: T1, Insulin-degrading enzyme (Homo sapiens, UniProt P14735); assay: Dose Response: Fluorescence polarization-based cell-based high throughput dose response assay for inhibitors of insulin-degrading enzyme (IDE). [Related pubchem assays: 434962 (Primary screen (IDE inhibitors in singlicate)), 449730 (Counterscreen (Cytotoxicity in triplicate)), 435028 (Confirmation (IDE inhibitors in triplicate)), 434984 (Summary …; format: functional
T1 sequence (P14735 whole entry): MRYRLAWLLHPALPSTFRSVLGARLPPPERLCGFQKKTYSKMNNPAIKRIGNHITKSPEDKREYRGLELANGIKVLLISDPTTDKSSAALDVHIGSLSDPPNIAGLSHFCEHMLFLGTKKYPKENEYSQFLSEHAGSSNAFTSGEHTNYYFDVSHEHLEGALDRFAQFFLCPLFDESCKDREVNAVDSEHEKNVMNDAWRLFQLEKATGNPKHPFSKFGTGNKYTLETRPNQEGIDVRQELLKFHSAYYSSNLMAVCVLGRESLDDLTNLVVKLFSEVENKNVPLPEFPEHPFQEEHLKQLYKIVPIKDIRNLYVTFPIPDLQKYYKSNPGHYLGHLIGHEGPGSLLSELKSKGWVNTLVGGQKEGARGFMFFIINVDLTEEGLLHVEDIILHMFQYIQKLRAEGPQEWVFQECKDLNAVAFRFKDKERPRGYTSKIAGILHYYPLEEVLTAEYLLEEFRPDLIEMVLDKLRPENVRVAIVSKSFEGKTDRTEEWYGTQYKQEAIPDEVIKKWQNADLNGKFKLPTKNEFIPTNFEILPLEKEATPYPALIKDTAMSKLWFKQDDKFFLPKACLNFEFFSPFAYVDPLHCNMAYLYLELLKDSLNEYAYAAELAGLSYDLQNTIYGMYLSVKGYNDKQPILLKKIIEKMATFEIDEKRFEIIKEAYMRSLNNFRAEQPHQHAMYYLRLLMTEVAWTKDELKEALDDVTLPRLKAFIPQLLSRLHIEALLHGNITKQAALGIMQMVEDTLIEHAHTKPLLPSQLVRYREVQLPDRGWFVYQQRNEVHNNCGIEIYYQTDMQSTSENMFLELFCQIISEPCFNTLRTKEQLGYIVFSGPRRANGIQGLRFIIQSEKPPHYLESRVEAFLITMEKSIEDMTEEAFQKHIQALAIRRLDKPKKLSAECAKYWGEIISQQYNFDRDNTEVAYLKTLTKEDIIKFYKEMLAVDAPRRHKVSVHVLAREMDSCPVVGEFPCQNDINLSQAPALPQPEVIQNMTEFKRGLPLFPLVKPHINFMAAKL

INS1 = assay: beta cell apoptosis inhibitors, cytokine rescue, dose response, luminescence, retest (AID 449756); format: functional, cell-based; settings: Rattus norvegicus;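 further: cell death triggered by IL-1 beta plus TNF-alpha plus IFN-gamma mixture; protective hits raise ATP signal compared with cytokine alone wells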
[12] = microbe, parasite or virus in culture; format: functional; settings: Mycobacterium tuberculosis
Beta-galactosidase = Beta-galactosidase (Escherichia coli, UniProt Q8VNN2); assay: beta-galactosidase enzyme inhibitors and activators, dose response, artefact control for CCR6 antagonist project, biochemical, E. coli enzyme, set 3 (AID 504712); format: functional
[13] = ZM109 Env clade C HIV-1 fusion inhibitors, dose response, HeLa effector, CEM target cells, luciferase, cherry-pick (AID 652058); format: functional, cell-based
[14] = inhibitors of clade B AD8 Env fusion, dose response, cell-based, cherry-pick (AID 652062); format: functional;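 further: luciferase signal from cell-cell fusion driven by HIV-1 clade B AD8 Env; potency is for inhibitors of fusion seen as a drop in luminescence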
[15] = cytotoxicity in KRAS-transformed pancreatic duct cells, primary screen, cell-based, fluorescence, HTS (AID 431); format: functional; settings: Homo sapiens;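 further: cell line used: HPDE-C7K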
[16] = inhibitors of HIV Env-driven cell fusion, dose response, cherry-pick (AID 652057); format: functional, cell-based
[17] = CEM21 lymphoblast cell cytotoxicity, dose response, cytotoxicity control for viral fusion inhibitor project, CellTiter-Glo luminescence, cherry-picked (AID 652042); format: functional, cell-based;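 further: potency for signal decrease meaning cytotoxicity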
[18] = target: DNA damage-inducible transcript 3 protein (Mus musculus, UniProt P35639); format: functional, Cricetulus griseus
[19] = cytotoxicity toward NIH3T3 fibroblasts, dose response, counter-screen, cell-based, ATP luminescence, mouse fibroblasts (AID 2010); format: functional;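 further: cells exposed to compound for about 90 hours before reading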
Streptococcus = assay: Group A Streptococcus viability loss, dose response, counter-screen for streptokinase expression inhibitor project, luminescence, BacTiterGlo (AID 1915); format: functional, organism-based;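 further: potency for reduction of bacterial viability or growth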
[20] = test system: Streptococcus sp. 'group A'; assay: growth inhibition of control SK(-) GAS strain, dose response, counter-screen for streptokinase expression inhibitor project, luminescence, kanamycin, BacTiterGlo, confirmation (AID 1900); format: functional, organism-based
[21] = inhibitors of intracellular T. cruzi replication, confirmation, NIH3T3 host cells, beta-gal luminescence (AID 2044); format: functional, cell-based;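 further: intracellular parasites grown in NIH/3T3 mouse fibroblasts as host cells; luminescent beta-galactosidase reporter signal from transgenic T. cruzi replicating inside host cells; inhibitors lower the luminescence signal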
Streptokinase A = target: T2, Streptokinase A (Streptococcus pyogenes serotype M1, UniProt P10520); assay: S. pyogenes streptokinase expression inhibitors, potency, dose response, plasminogen activation absorbance, OD405 (AID 1914); format: functional, Streptococcus pyogenes M1 GAS;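 further: secreted streptokinase activity via plasminogen activation per viability signal from cell pellet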
T2 sequence (P10520 whole entry): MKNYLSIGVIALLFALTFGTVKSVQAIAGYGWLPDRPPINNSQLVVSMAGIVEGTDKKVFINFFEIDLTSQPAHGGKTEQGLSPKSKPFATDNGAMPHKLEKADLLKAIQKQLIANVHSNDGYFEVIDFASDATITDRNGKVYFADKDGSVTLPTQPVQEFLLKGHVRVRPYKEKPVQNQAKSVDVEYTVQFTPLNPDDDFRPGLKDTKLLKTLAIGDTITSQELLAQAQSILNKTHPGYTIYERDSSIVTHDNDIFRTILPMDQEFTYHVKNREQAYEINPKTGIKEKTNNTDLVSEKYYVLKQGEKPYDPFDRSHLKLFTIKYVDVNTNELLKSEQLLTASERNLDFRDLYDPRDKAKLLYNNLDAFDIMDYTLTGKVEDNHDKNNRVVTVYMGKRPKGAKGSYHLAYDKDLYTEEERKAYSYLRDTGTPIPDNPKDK

Sequence of Phospholipase A2 (P04054 whole entry): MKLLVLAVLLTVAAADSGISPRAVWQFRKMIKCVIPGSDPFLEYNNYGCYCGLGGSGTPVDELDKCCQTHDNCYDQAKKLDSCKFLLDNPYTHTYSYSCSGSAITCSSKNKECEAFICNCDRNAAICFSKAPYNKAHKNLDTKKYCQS
Sequence of Cysteine protease ATG4B (Q9Y4P1 whole entry): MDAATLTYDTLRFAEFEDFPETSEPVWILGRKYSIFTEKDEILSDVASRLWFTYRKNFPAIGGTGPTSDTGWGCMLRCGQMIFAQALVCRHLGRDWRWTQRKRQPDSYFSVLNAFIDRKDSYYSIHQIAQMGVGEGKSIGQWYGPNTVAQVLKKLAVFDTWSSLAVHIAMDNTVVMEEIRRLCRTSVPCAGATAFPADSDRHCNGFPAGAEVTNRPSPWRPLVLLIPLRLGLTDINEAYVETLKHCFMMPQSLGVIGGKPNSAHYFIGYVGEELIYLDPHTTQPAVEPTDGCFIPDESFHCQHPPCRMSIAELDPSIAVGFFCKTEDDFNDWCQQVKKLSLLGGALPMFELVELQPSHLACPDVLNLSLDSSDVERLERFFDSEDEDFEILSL
Sequence of DNA dC->dU-editing enzyme APOBEC-3G (Q9HC16 whole entry): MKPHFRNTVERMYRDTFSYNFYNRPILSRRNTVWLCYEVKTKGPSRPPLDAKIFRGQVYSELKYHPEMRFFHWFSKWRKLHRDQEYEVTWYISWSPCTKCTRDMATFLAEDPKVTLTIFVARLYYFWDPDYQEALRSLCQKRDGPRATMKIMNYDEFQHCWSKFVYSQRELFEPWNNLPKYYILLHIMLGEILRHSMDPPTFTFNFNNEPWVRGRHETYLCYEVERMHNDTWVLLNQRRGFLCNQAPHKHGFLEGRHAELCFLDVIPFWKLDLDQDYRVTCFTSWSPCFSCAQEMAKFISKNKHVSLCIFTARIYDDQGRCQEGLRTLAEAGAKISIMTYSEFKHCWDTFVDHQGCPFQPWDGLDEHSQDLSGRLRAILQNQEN
Sequence of Peroxisome proliferator-activated receptor gamma/Nuclear receptor coactivator 3 (P37231 whole entry): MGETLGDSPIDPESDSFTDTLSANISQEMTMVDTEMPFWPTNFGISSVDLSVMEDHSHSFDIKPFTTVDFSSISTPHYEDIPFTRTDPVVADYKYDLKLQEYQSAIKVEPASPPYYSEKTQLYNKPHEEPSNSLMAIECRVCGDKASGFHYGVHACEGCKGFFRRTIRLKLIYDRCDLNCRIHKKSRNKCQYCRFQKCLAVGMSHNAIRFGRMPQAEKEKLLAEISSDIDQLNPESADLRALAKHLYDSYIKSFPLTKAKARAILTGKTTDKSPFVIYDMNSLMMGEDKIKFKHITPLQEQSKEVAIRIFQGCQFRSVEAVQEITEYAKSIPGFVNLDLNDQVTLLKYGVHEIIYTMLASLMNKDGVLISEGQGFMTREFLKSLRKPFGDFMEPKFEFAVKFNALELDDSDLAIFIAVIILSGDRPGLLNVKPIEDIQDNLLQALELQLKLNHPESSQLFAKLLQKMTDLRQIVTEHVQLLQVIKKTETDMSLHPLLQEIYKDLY
Sequence of Peroxisome proliferator-activated receptor gamma/Nuclear receptor coactivator 3 (Q9Y6Q9 whole entry, further chain): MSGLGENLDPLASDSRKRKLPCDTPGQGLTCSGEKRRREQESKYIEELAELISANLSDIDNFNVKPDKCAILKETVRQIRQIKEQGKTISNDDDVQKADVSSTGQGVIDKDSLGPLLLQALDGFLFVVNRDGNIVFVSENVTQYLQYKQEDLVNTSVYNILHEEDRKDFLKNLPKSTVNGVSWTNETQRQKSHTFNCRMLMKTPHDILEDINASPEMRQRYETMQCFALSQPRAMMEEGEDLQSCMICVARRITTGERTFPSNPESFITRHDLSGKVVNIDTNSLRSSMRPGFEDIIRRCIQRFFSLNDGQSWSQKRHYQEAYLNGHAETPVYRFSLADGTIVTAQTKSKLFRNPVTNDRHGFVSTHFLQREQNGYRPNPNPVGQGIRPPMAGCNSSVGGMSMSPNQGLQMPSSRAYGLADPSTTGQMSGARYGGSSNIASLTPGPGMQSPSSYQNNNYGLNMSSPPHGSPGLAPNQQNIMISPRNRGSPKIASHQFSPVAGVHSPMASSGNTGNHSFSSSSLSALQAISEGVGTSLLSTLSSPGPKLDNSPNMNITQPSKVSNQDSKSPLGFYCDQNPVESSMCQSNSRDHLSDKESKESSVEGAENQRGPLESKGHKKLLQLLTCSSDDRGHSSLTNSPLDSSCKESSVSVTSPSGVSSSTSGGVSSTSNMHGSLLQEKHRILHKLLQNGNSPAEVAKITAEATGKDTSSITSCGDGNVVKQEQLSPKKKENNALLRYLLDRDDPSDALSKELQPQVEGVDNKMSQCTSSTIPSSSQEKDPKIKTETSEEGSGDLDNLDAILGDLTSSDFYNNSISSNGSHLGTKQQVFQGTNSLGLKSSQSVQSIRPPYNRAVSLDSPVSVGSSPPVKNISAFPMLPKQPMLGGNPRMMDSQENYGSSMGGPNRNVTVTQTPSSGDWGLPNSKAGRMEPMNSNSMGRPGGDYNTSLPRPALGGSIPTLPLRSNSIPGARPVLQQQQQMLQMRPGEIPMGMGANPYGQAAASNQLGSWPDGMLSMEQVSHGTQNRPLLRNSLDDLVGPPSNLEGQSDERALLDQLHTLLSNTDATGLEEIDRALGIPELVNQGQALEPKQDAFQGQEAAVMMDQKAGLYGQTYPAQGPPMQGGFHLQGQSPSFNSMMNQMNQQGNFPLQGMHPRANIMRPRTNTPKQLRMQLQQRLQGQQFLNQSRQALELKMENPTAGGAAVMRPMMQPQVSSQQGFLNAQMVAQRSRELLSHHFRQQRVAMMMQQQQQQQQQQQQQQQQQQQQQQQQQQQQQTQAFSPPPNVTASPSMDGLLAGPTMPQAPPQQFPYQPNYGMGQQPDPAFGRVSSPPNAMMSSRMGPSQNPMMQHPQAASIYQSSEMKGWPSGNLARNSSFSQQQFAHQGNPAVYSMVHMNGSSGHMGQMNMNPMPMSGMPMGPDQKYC
Sequence of Peroxisome proliferator-activated receptor gamma/Nuclear receptor coactivator 1 (P37231 whole entry): as the sequence (P37231 whole entry) above
Sequence of Peroxisome proliferator-activated receptor gamma/Nuclear receptor coactivator 1 (Q15788 whole entry, further chain): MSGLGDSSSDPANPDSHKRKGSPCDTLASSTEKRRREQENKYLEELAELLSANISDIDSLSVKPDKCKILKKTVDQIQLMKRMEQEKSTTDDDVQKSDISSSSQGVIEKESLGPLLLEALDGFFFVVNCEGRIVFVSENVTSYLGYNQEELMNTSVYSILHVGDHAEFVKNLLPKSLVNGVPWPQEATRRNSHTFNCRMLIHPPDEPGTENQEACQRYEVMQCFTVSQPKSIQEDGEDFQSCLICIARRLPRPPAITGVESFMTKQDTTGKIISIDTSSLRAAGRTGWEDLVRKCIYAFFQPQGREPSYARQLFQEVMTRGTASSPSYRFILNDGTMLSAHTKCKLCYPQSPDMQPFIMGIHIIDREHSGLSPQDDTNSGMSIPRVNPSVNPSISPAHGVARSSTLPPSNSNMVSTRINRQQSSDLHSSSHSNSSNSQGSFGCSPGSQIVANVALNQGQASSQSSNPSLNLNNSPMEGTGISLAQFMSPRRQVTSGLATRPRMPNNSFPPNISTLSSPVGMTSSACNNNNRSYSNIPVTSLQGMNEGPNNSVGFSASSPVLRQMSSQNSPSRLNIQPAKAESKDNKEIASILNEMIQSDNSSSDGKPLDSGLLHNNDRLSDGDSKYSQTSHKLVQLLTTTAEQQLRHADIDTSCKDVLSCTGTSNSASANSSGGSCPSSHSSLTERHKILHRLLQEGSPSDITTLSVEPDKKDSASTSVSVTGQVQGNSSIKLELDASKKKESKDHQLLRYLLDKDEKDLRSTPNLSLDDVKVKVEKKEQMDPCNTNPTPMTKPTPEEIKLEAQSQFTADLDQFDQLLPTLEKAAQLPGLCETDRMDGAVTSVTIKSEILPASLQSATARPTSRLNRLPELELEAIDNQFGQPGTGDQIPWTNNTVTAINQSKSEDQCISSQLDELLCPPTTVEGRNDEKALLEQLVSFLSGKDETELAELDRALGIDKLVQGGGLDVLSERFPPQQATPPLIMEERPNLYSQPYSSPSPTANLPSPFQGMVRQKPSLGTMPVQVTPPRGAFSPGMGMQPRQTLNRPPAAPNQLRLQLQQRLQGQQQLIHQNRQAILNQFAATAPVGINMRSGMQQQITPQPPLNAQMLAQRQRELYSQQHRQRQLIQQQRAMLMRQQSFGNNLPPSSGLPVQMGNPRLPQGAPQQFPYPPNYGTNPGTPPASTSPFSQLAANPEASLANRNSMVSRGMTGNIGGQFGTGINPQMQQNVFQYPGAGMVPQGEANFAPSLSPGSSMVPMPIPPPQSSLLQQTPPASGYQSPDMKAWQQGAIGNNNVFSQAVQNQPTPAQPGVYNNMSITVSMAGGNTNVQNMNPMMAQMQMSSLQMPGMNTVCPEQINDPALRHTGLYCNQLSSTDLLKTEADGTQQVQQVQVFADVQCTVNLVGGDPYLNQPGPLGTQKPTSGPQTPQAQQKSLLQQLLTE
Sequence of DNA dC->dU-editing enzyme APOBEC-3A (P31941 whole entry): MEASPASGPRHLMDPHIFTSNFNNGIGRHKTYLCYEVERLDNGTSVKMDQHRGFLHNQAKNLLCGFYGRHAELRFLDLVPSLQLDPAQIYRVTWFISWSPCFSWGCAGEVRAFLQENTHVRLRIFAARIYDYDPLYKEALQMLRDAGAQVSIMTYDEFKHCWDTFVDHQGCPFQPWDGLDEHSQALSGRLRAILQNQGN

SMILES: CCOC(=O)c1c(-c2ccccc2)oc2cc(Br)c(O)c(C=O)c12
- IC50 (Phospholipase A2): 3.36 µM (active)
- EC50 [1]: 2.69 µM (active)
- IC50 (Cysteine protease ATG4B): 9.27 µM (active)
- EC50 [2]: 4.74 µM (inconclusive)

SMILES: Cn1c(=O)cc(SCC(=O)N2CCN(c3ccccc3)CC2)c2ccccc21
- EC50 [3]: 185 µM (not active)
- EC50 [4]: > 79.4 µM (not active)
- EC50 [5]: > 79.4 µM (inactive)

SMILES: Cn1c(=O)cc(SCC(=O)N2CCN(c3ccccn3)CC2)c2ccccc21
- EC50 [3]: > 79.4 µM (not active)
- EC50 [4]: > 79.4 µM (not active)
- EC50 [5]: > 79.4 µM (inactive)

SMILES: COc1ccccc1NS(=O)(=O)c1cc(NC(=O)c2ccc(Cl)nc2)ccc1N1CCCC1
- IC50 [6]: > 80 µM (inactive)
- IC50 [7]: 14.3 µM (active)
- IC50 [8]: > 100 µM (inactive)

SMILES: C=CCn1c(OCc2ccccc2)n[nH]c1=S
- IC50 [7]: 7.3 µM (active)
- IC50 [8]: > 100 µM (inactive)

SMILES: CCCn1c(Nc2nc3ccccc3n2C)nc2ccccc21
- IC50 [9]: > 66.6 µM (inactive)
- EC50 [1]: 1.33 µM (active)
- IC50 [10]: 14.4 µM (not active)
- EC50 [11]: 6.72 µM (active)
- IC50 (Insulin-degrading enzyme): > 55.9 µM (not active)
- AC50 (INS1): 7.73 µM (active)
- CC50 [12]: 13.4 µM (active)
- IC50 (Beta-galactosidase): > 66.6 µM (inactive)
- AC50 [13]: 8.59 µM (active)
- EC50 [2]: > 160 µM (inconclusive)
- AC50 [14]: 10.4 µM (active)
- EC50 [15]: 7.01 µM (active)
- AC50 [16]: 10.1 µM (active)
- AC50 [17]: 8.31 µM (active)

SMILES: O=C(Nc1ccccc1-c1nc2ccccc2[nH]1)c1sc2ccccc2c1Cl
- Absolute IC50 (CHOP) [18]: 10 µM
- EC50 [19]: > 60 µM (inconclusive)
- EC50 (Streptococcus): > 150 µM (not active)
- EC50 [20]: 21.3 µM (active)
- EC50 [21]: 2.1 µM (active)
- EC50 (Streptokinase A): > 150 µM (not active)

SMILES: COc1ccc(-c2nnc(CSc3nc4ccccc4c(=O)n3CC(C)C)o2)cc1OC
- IC50 (Phospholipase A2): 1.19 µM (active)
- IC50 (Cysteine protease ATG4B): 6.22 µM (active)
